# Data reported in US7098372B1, “Pharmaceutical compositions and methods of using secreted frizzled related protein” (Wyeth, priority 1999, dated 2006).
# T1: PTH-1 receptor (Homo sapiens, UniProt Q03431)
# T1 construct: the hOB-01-C1-PS-09 cell line was selected for further characterization based on its high-level of PTH-1 receptor mRNA expression; endogenous in cells; host or cells: hOB-01-C1-PS-09 cells (ATCC PTA-785)
# T1 sequence (Q03431 27-593): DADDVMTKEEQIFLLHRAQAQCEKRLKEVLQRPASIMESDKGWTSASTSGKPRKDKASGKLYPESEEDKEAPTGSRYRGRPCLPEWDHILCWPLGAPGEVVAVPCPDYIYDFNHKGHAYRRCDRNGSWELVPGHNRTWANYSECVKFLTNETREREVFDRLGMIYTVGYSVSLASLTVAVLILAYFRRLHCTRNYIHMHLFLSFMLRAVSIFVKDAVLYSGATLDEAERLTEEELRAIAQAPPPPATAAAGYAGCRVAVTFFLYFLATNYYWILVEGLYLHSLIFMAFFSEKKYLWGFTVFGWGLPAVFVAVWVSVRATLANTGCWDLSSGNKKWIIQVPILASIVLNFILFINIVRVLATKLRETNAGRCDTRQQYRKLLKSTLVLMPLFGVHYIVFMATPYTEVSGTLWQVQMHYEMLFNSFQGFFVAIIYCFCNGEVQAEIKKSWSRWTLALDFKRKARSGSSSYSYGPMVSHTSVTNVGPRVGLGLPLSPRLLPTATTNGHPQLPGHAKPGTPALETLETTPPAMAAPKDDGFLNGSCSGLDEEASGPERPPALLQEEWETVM
# Columns and labels:
# hOB SFRP mRNA [1] = assay: Northern blot analysis of hOB SFRP mRNA expression; assay type: cell-based, human
# Source text: The hOB SFRP gene fragment was identified using RADE (rapid analysis of differential expression) technology as described by Shiue 1997 Drug Develop. Res. 41: 142–159, the whole of which is incorporated herein. Three hOB cell lines (hOB-03-C5, hOB-03-CE6 and hOB-01-C1), representing three distinct stages of differentiation (proliferative, mature and preosteocytic, respectively) were used to isolate and identify SFRP. The hOB cell lines were established and cultured as previously described (Bodine et al. 1996 J. Bone Miner. Res. 11: 806–819; Bodine et al. 1996 Endocrinology 137: 4592–4604; Bodine et al. 1997 J. Cell. Biochem. 65: 368–387). […] However, in contrast to osteosarcoma cells (Stein and Lian 1993 Endocrine Rev. 14: 424–442), the hOB cell lines were faithful to the proliferation/differentiation relationship at the nonpermissive temperature (>37° C.) when the T-antigen mutant is inactivated. The cell lines were seeded into 150 mm dishes at ˜40,000 cells/cm^2 with growth medium [D-MEM/F-12 containing 10% (v/v) heat-inactivated fetal bovine serum (FBS), 1% (v/v) Penicillin-Streptomycin and 2 mM GlutaMAX-1] and incubated overnight at 34° C. The next day, the medium was removed, the cells were rinsed with phosphate-buffered saline (PBS), 20 ml of serum-free medium was added to the dishes [phenol red-free D-MEM/F-12 (Gibco/BRL) containing 0.25% (w/v) bovine serum albumin (BSA, Pentex crystallized, Bayer), 1% (v/v) Penicillin-Streptomycin, 2 mM GlutaMAX-1, […] ascorbate-2-phosphate (Wako), and 10 nM menadione sodium bisulfite (vitamin K3)], and the dishes were incubated at 39° C. for 24 hr. The next day, the medium was removed and the cells were treated at 39° C. for an additional 24 hr with 20 ml of fresh serum-free medium containing either vehicle (Control), 8 nM human parathyroid hormone 1–34 (PTH), 100 nM prostaglandin E2 (PGE2) or 0.1 nM human transforming growth factor-β1 (TGF-β1). PTH, PGE2 and TGF-β1 are known osteogenic agents (Whitfield and Morley 1995 Trends Pharmaceut. Sci. 16:382–386; Jee and Ma 1997 Bone 21:297–304; Centrella et al. 1994 Endocrine Rev. 15:27–39). After the treatment period, the dishes were rinsed with PBS and total cellular RNA was isolated from the nontreated and treated cells using TRIzol according to the manufacturers instructions (GibcoBRL). RADE was then performed with the isolated RNA samples as above; the regulated gene fragments were identified, cloned and sequenced. These experiments identified a total of 82 differentially expressed genes. A BLAST (basic local alignment search tool) search of the public data bases was performed on the RADE-obtained gene fragments; one of the gene fragments was highly homologous to mouse SFRP-1. This gene fragment was identified during RADE using the following primer pair: 5′-[…]-3′ (HT11A)3′ end (reverse primer) and 5′-[…]-3′ (H-AP1) 5′ end (forward primer), which sequences are SEQ ID NO 11 and SEQ ID NO 12, respectively. The expression and regulation of the gene fragment having homology to mouse cDNA SFRP-1 was confirmed by Northern blot analysis.
# In order to confirm the regulation of hOB SFRP gene expression by different osteogenic agents (i.e., the DNA fragment identified in Example 1, above), the hOB cell lines were treated with PTH, PGE2, and TGF-β1; RNA was then isolated for Northern hybridizations. The experiments were performed as follows. The hOB cell lines were seeded into 150 mm dishes and treated as described in Example 1, except that polyA+ RNA was isolated from total cellular RNA using Oligotex mRNA maxi kits as described by the manufacturer (Qiagen). Northern blot analysis was performed using either the excised RADE hOB SFRP gene fragment, the cloned hOB SFRP gene fragment or the cloned full-length hOB SFRP cDNA as a ^32P-labeled probe (as described in Bodine et al. 1996 J. Bone Miner. Res. 11: 806–819, which is incorporated herein). Each of these probes detected a 4.4–4.6 kb message in the hOB cells. […]
# hOB SFRP mRNA [2] = assay: hOB SFRP mRNA levels after treatment with various agents (method not given); assay type: cell-based, human; details: various hOB cell lines
# PTH-1 receptor = biological target: T1, PTH-1 receptor; assay: Intracellular cAMP assay in hOB-01-C1-PS-09 cells; assay type: cell-based; details: preincubation at 34° C.
# Protocol: As mentioned above, the hOB-01-C1-PS-09 cell line was selected for further characterization based on its high-level of PTH-1 receptor mRNA expression. […] Consistent with this enhanced PTH-1 receptor expression, […] increasing concentrations of human PTH 1–34 (hPTH 1–34) for 10 min at 37° C. generates a dose-dependent 5- to 6-fold increase in intracellular cyclic-adenosine monophosphate (cAMP) levels (FIG. 24). […] Thus, both PTH-1 receptor expression and responsiveness are enhanced following inactivation of the tsA-209 T-antigen. One potential utility for this cAMP assay would be the ability to characterize the activities of PTH-analogs or -mimetics in an important target cell under conditions where levels of PTH-1 receptor expression are dramatically altered.
# Wnt signaling = assay: TCF-luciferase reporter gene assay of Wnt signaling; assay type: cell-based, human; details: transfected cDNA, hOB-01-C1-PS-09 or hOB-02-C1-PS-02 cells
# Protocol: SARP-2 or human Frzb-1 expression plasmids downregulates Wnt signaling (when compared to the pcDNA3.1 empty vector control) in the hOB cells as measured by the TCF-luciferase reporter gene assay. This assay is an authentic measurement of Wnt signaling and β-catenin nuclear activity.
# In order to determine if the up-regulation of SFRP-1/FRP-1/SARP-2 gene expression results in an antagonism of the Wnt signaling pathway, hOB-03-CE6 cells were treated with PGE2 and the resulting cells probed with β-catenin monoclonal antibody. Overexpression of Wnt proteins in cells up-regulates a signaling protein known as β-catenin (reviewed in Moon et al. 1997 Cell 88: 725–728; Barth et al. 1997 Curr. Opin. Cell Biol. 9: 683–690; and Nusse 1997 Cell 89: 321–323). […] Therefore, hOB-03-CE6 cells were plated and treated with PGE2 as described in Example 1, except that total cellular protein was extracted and a Western blot analysis for β-catenin was performed using a monoclonal antibody to the protein (Transduction Laboratories) as previously described (Bodine et al. 1996 Endocrinology 137: 4592–4604; Melkonyan et al. 1997 Proc. Natl. Acad. Sci. USA 94: 13636–13641). […] Both human and rat SFRP-1/FRP-1/SARP-2, as well as human Frzb-1/FrzB/Fritz, suppressed TCF-luciferase activity in the hOB cells.
# hOB-01-C1-PS-09 cells = assay: Cell viability of hOB-01-C1-PS-09 cells stably transfected with hOB SFRP cDNA; assay type: cell-based, human; details: stably transfected hOB-01-C1-PS-09 cells
# Source text: For these experiments, the cells were stably transfected with either an hOB SFRP cDNA (i.e., SFRP-1/FRP-1/SARP-2) mammalian expression plasmid or the empty vector (i.e., pcDNA3.1). The results are presented as the % of the day 0 control cells.
# For these experiments, the cells were stably transfected with either an hOB SFRP cDNA (i.e., SFRP-1/FRP-1/SARP-2) mammalian expression plasmid or the empty vector (i.e., pcDNA3.1, which is obtained from Invitrogen of Carlsbad, Calif.). Standard cloning technigues were used (See Ausubel et al. 1997 Short Protocols in M<olecular Biology, 3rd edition, Wiley {New York}). The results are presented as the % of the day 0 control cells.
increase in cAMP concentrations (PTH-1 receptor),TCF-luciferase activity (Wnt signaling),Molecule,"regulation of SFRP mRNA (hOB SFRP mRNA [1]; SaOS-2 human osteosarcoma cells, 24 hr, 37° C.)","suppression of basal hOB SFRP expression (hOB SFRP mRNA [1]; hOB-01-C1 cells, 8 nM) [%]",effect on hOB SFRP message expression (hOB SFRP mRNA [2]),rate of cell death on overexpression versus empty vector (hOB-01-C1-PS-09 cells)
does not result in a subsequent increase,,human parathyroid hormone 1–34 [PTH],not regulated,35,suppresses,
,suppressed,"SFRP-1/FRP-1/SARP-2: human osteoblast secreted frizzled related protein, SEQ ID NO 2, expressed from transfected cDNA in pcDNA3.1 (protein, listed as Homo sapiens) MGIGRSEGGRRGAALGVLLALGAALLAVGSASEYDYVSFQSDIGPYQSGRFYTKPPQCVDIPADLRLCHNVGYKKMVLPNLLEHETMAEVKQQASSWVPLLNKNCHAGTQVFLCSLFAPVCLDRPIYPCRWLCEAVRDSCEPVMQFFGFYWPEMLKCDKFPEGDVCIAMTPPNATEASKPQGTTVCPPCDNELKSEAIIEHLCASEFALRMKIKEVKKENGDKKIVPKKKKPLKLGPIKKKDLKKLVLYLKNGADCPCHQLDNLSHHFLIMGRKVKSQYLLTAIHKWDKKNKEFKNFMKKMKNHECPTFQSVFK",,,,accelerates the rate of cell death
